# Experiment: Electrochemical characteristics of β-galactosidase labeled substrates and their cleaved labels
# Format: physicochemical
# Conditions: for Elec. Active?: scanned in the potential range −0.6 V to +1.0 V vs. Ag/AgCl; for Reversible?: electrochemical reversibility, per oxidation potential listed
# Description: When cleaved from the substrate, the label should be electrochemically active in this same potential range.
Compound,Elec. Active?,Reversible?,Eox vs. Ag/AGCL [V],electrochemical activity at the measurement potential (before and after cleavage)
"Nc1ccc(O[C@@H]2O[C@H](CO)[C@H](O)[C@H](O)[C@H]2O)cc1 [p-aminophenyl-β-D-galactyopyranoside, p-aminophenyl-β-D-galactopyranoside]",no,–,–,–
"OCCOCCOCCOc1ccc(O)c2ccccc12 [4-(1,4,7, 10-tetraoxadecyl)-1-naphthol]",yes,no,–,–
O=c1ccc2nc3ccc(O)cc3oc-2c1 [resorufin],yes,yes,−0.100,–
OCCOCCOCCOc1ccc(O[C@@H]2O[C@H](CO)[C@H](O)[C@H](O)[C@H]2O)c2ccccc12,yes,"no, no",–,–
COc1ccc(O)c2ccccc12 [4-methoxy-1-naphthol],yes,"quasi, no",–,–
O=c1ccc2nc3ccc(O[C@@H]4O[C@H](CO)[C@H](O)[C@H](O)[C@H]4O)cc3oc-2c1 [resorufin-β-D-galactopyranoside],yes,Yes,−0.100,electrochemically active at the measurement potential before and after cleavage
COc1ccc(O[C@@H]2O[C@H](CO)[C@H](O)[C@H](O)[C@H]2O)c2ccccc12,yes,"quasi, no",–,–
